According to patent US20030125319A1, “Methods for assessing, improving, or maintaining urogenital health in postmenopausal women” (priority 2000, published 2003):

System: postmenopausal women
Experiment: Self-assessment questionnaire (subjective vaginal health questionnaire) in postmenopausal women taking the estrogen agonist/antagonist
Assay type: in vivo, human
Details: self-reported by postmenopausal women taking the compound
Experimental: The subject self-assessment of vaginal health is performed with a subjective vaginal health questionnaire. Typically, the questionnaire is performed in private and the results kept confidential. The questionnaire may include an envelope that is specially encoded to later identify the treatment that the subject is undergoing. An additional question may be added in subsequent questionnaires following administration of the baseline questionnaire, which question would ask: “Have you had any positive or negative vaginal changes since you have been taking the study medication?” This question may be coupled to a multiple-point ratings scale ranging from “mostly positive changes,” to “moderately positive changes,” to “mildly positive changes,” to “no changes,” to “mildly negative changes,” to “moderately negative changes,” to “mostly negative changes.”

## O=C(O)C(O)C(O)C(=O)O.Oc1ccc2c(c1)CC[C@H](c1ccccc1)[C@@H]2c1ccc(OCCN2CCCC2)cc1 [(−)-cis-6-phenyl-5-[4-(2-pyrrolidin-1-yl-ethoxy)-phenyl]-5,6,7,8-tetrahydro-naphthalene-2-ol, D-tartrate salt]
  frequency of sexual intercourse: increased frequency
  intensity of orgasms: increased intensity
  number of orgasms: increased number
